Tests used:
human orexin 1 receptor = human orexin 1 receptor (Homo sapiens, UniProt O43613); assay: Human orexin 1 receptor radioligand binding; conditions: human orexin 1 receptor radioligand binding; averages of 2-20 runs; read-out: hOX1 Ki
human orexin 2 receptor = human orexin 2 receptor (Homo sapiens (Human), UniProt O43614); assay: Human orexin 2 receptor radioligand binding ([3H]-EMPA); conditions: averages of 2-20 runs, read-out: hOX2 Ki
Outline: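 Competition binding using homogenized HEK293 cells stably expressing human orexin 2 receptor, [3H]-EMPA at 2 nM final and ≤0.1% DMSO; nonspecific binding set with 10 μM almorexant. Filter-bound radioactivity counted by scintillation; one-site competition IC50 converted to Ki using pre-determined Kd, compounds run in triplicate.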

rat orexin 1 receptor = rat orexin 1 receptor (Rattus norvegicus, UniProt P56718); assay: Rat orexin 1 receptor radioligand binding; conditions: rat orexin 1 receptor radioligand binding; averages of 2-20 runs; read-out: rOX1 Ki
Outline: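 Cell-suspension competition binding used 4 nM final tritiated thiazolyl-pyrrolidinyl-methanone radioligand in PBS, ≤0.1% DMSO, with 10 µM almorexant defining nonspecific binding. Filter-bound radioactivity was counted in triplicate. IC50 came from one-site competition fits and was converted to Ki using the predetermined Kd.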

human orexin 2 receptor, sequence (O43614 whole entry): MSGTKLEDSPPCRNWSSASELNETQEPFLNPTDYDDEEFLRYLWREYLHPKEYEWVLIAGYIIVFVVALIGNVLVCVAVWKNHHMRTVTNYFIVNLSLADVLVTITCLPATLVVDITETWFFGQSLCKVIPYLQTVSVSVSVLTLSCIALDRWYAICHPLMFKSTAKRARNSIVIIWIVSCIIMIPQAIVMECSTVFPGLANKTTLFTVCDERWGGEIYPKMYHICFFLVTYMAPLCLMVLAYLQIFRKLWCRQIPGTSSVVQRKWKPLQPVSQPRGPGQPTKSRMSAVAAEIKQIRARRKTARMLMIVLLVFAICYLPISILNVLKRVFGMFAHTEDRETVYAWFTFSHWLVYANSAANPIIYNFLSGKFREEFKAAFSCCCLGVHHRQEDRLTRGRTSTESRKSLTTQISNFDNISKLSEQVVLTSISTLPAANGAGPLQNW

SMILES	Ki (human orexin 1 receptor)	Ki (human orexin 2 receptor)	Ki (rat orexin 1 receptor)
C[C@H]1[C@H](Oc2ncc(C(F)(F)F)cc2F)CCCN1C(=O)c1ccc(F)cc1-c1ncccn1 [Example 222, (4-fluoro-2-(pyrimidin-2-yl)phenyl)((2S,3R)-3-((3-fluoro-5-(trifluoromethyl)pyridin-2-yl)oxy)-2-methylpiperidin-1-yl)methanone]	91 nM	1300 nM	55 nM
C[C@H]1[C@H](Oc2ccc(C(F)(F)F)cn2)CCCN1C(=O)c1ccccc1-c1ncc(F)cn1 [Example 141, (2-(5-fluoropyrimidin-2-yl)phenyl)((2S,3R)-2-methyl-3-((5-(trifluoromethyl)pyridin-2-yl)oxy)piperidin-1-yl)methanone]	22 nM	676 nM	31 nM
C[C@H]1[C@H](Nc2ccc(C(F)(F)F)cn2)CCCN1C(=O)c1ccc(F)cc1-c1ncccn1 (relative stereo) [Example 191, (4-fluoro-2-(pyrimidin-2-yl)phenyl)((2S*,3R*)-2-methyl-3-((5-(trifluoromethyl)pyridin-2-yl)amino)piperidin-1-yl)methanone]	9 nM	421 nM	12 nM
C[C@H]1[C@H](Oc2ccc(C(F)(F)F)cn2)CCCN1C(=O)c1c(F)cccc1-c1ncccn1 [Example 212, (2-fluoro-6-(pyrimidin-2-yl)phenyl)((2S,3R)-2-methyl-3-((5-(trifluoromethyl)pyridin-2-yl)oxy)piperidin-1-yl)methanone]	132 nM	915 nM	45 nM
Cc1cnc(-n2nccn2)c(C(=O)N2CCC[C@@H](Oc3cnc(C(F)(F)F)cn3)[C@@H]2C)c1 [Example 177, (5-methyl-2-(2H-1,2,3-triazol-2-yl)pyridin-3-yl)((2S,3R)-2-methyl-3-((5-(trifluoromethyl)pyrazin-2-yl)oxy)piperidin-1-yl)methanone]	166 nM	> 10000 nM	238 nM
C[C@H]1[C@H](Nc2nc3ccccc3o2)CCCN1C(=O)c1cccc(F)c1-c1ncccn1 (relative stereo) [Example 204, ((2S*,3R*)-3-(benzo[d]oxazol-2-ylamino)-2-methylpiperidin-1-yl)(3-fluoro-2-(pyrimidin-2-yl)phenyl)methanone]	16 nM	292 nM	14 nM
COc1ccc(-n2nccn2)c(C(=O)N2CCC[C@@H](Nc3ncc(C(F)(F)F)cn3)[C@@H]2C)c1 [Example 89, (5-methoxy-2-(2H-1,2,3-triazol-2-yl)phenyl)((2S,3R)-2-methyl-3-((5-(trifluoromethyl)pyrimidin-2-yl)amino)piperidin-1-yl)methanone]	9 nM	422 nM	11 nM
Cc1cnc(-n2nccn2)c(C(=O)N2CCC[C@@H](Oc3ccc(Cl)cn3)[C@@H]2C)c1 [Example 214, ((2S,3R)-3-((5-chloropyridin-2-yl)oxy)-2-methylpiperidin-1-yl)(5-methyl-2-(2H-1,2,3-triazol-2-yl)pyridin-3-yl)methanone]	78 nM	5400 nM	38 nM
C[C@H]1[C@H](Oc2ccc(Cl)cn2)CCCN1C(=O)c1ncccc1-c1ncccn1 [Example 218, ((2S,3R)-3-((5-chloropyridin-2-yl)oxy)-2-methylpiperidin-1-yl)(3-(pyrimidin-2-yl)pyridin-2-yl)methanone]	29 nM	495 nM	26 nM
Cc1cccc(C(=O)N2CCC[C@@H](Oc3ncc(C(F)(F)F)cn3)[C@@H]2C)c1-c1ncc(F)cn1 [Example 170, (2-(5-fluoropyrimidin-2-yl)-3-methylphenyl)((2S,3R)-2-methyl-3-((5-(trifluoromethyl)pyrimidin-2-yl)oxy)piperidin-1-yl)methanone]	49 nM	2800 nM	48 nM
C[C@H]1[C@H](Oc2ncc(C(F)(F)F)cc2F)CCCN1C(=O)c1cccc(F)c1-c1ncccn1 [Example 155, (3-fluoro-2-(pyrimidin-2-yl)phenyl)((2S,3R)-3-((3-fluoro-5-(trifluoromethyl)pyridin-2-yl)oxy)-2-methylpiperidin-1-yl)methanone]	16 nM	1100 nM	28 nM
C[C@H]1[C@H](Oc2cnc(C(F)(F)F)cn2)CCCN1C(=O)c1ccccc1-c1ncc(F)cn1 [Example 166, (2-(5-fluoropyrimidin-2-yl)phenyl)((2S,3R)-2-methyl-3-((5-(trifluoromethyl)pyrazin-2-yl)oxy)piperidin-1-yl)methanone]	124 nM	3100 nM	97 nM

Next, values leading:

Ki (human orexin 1 receptor)	Ki (human orexin 2 receptor)	Ki (rat orexin 1 receptor)	SMILES
45 nM	912 nM	44 nM	C[C@H]1[C@H](Oc2cnc(C(F)(F)F)cn2)CCCN1C(=O)c1ccccc1-n1nccn1 [Example 106, (2-(2H-1,2,3-triazol-2-yl)phenyl)((2S,3R)-2-methyl-3-((5-(trifluoromethyl)pyrazin-2-yl)oxy)piperidin-1-yl)methanone]
39 nM	> 10000 nM	32 nM	Cc1ccc(C(=O)N2CCC[C@@H](Oc3ccc(C(F)(F)F)cn3)[C@@H]2C)c(-n2nccn2)n1 [Example 150, (6-methyl-2-(2H-1,2,3-triazol-2-yl)pyridin-3-yl)((2S,3R)-2-methyl-3-((5-(trifluoromethyl)pyridin-2-yl)oxy)piperidin-1-yl)methanone]
92 nM	2500 nM	119 nM	C[C@H]1[C@H](Nc2ncc(C(F)(F)F)cn2)CCCN1C(=O)c1ccc(F)cc1-n1nccn1 (relative stereo) [Example 198, (4-fluoro-2-(2H-1,2,3-triazol-2-yl)phenyl)((2S*,3R*)-2-methyl-3-((5-(trifluoromethyl)pyrimidin-2-yl)amino)piperidin-1-yl)methanone]
31 nM	537 nM	35 nM	Cc1cccc(C(=O)N2CCC[C@@H](Oc3ccc(C(F)(F)F)cn3)[C@@H]2C)c1-c1ncccn1 [Example 151, (3-methyl-2-(pyrimidin-2-yl)phenyl)((2S,3R)-2-methyl-3-((5-(trifluoromethyl)pyridin-2-yl)oxy)piperidin-1-yl)methanone]
23 nM	1200 nM	32 nM	C[C@H]1[C@H](Oc2ncc(C(F)(F)F)cn2)CCCN1C(=O)c1ccccc1-c1ncccn1 [Example 169, ((2S,3R)-2-methyl-3-((5-(trifluoromethyl)pyrimidin-2-yl)oxy)piperidin-1-yl)(2-(pyrimidin-2-yl)phenyl)methanone]
